From patent US9868742B2, “Substituted imidazo[1,2-b]pyridazines, substituted imidazo[1,5-b] pyridazines, related compounds, and their use in the treatment of medical disorders” (Lysosomal Therapeutics Inc., priority 2016, dated 2018)

Biological target: T1, glucocerebrosidase (Gcase) (Homo sapiens, UniProt P04062)
T1 sequence (P04062 40-536): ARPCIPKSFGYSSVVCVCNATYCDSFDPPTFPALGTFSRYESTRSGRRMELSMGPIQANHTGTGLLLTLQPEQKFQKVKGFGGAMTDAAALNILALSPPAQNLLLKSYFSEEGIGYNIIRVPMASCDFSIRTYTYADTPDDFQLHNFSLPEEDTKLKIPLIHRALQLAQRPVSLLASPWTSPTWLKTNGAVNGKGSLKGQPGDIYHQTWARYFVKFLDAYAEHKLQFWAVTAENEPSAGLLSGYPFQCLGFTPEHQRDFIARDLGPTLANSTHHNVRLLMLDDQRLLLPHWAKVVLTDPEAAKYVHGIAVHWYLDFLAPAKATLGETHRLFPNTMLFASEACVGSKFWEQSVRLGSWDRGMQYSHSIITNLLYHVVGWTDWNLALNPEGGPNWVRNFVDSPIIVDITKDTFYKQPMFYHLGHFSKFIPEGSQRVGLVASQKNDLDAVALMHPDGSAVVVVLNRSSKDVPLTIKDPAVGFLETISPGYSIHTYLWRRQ
Experiment: Glucocerebrosidase (Gcase) activation assay, 4-methylumbelliferyl-beta-D-glucopyranoside substrate with saposin C
Type: biochemical
Conditions: 10 nM GCase, 100 nM saposin C, pH 4.7
Method: The ability of exemplary compounds to activate glucocerebrosidase (Gcase) was measured.
A 484 μL aliquot of a 1.0 mg/mL solution of phosphatidylserine (PS) (Sigma P7769) in chloroform was evaporated under a stream of nitrogen for 1 hour. The lipid film was dissolved over 4 minutes of vigorous vortexing in 40 mL of 176 mM K2HPO4/50 mM citric acid (pH 4.7) containing 7.5 μL of triton X-100, resulting in a mixed micellar preparation with a composition of 0.32 mM triton and 0.37 mol % PS. 4-Methylumbelliferyl-beta-D-glucopyranoside (ACROS-337025000) was dissolved in the micellar solution to a final concentration of 2 mM for use as the reaction substrate.
Test compounds were diluted to the desired concentrations with dimethylsulfoxide (DMSO) from 10 mM stocks, and 0.41 μL of the DMSO compound mixture was added to 100 μL of micellar solution containing 10 nM GCase and 100 nM saposin C (Enzo ALX-201-262-C050). Pre-incubation was allowed to occur for 30 minutes at room temperature, after which the reaction was initiated by combining 25 μL of substrate solution with 25 μL of compound/GCase/saposin mixture. The reaction proceeded for 15 minutes at room temperature and was stopped by adding 150 μL of 1M glycine, pH 12.5. The endpoint of the reaction was monitored by measuring fluorescence intensity (excitation: 365 nm; emission: 440 nm) on a SpectraMax i3 instrument (Molecular Devices). […]

activation at 0.1 µM (0.1 μM test compound, read-out: Percent Gease Activation 0.1 μM Test Compound): 5 to 20%
activation at 1 µM (1 μM test compound, read-out: Percent Gease Activation 1 μM Test Compound): > 20%
Compound: CCCCCOC1CCC(NC(=O)c2ncc3c(C)cc(C)nn23)CC1 (centres unmarked)
